{
  "source": "patent US20240239774A1",
  "about": "“SOLUBLE ADENYLYL CYCLASE (SAC) INHIBITORS AND USES THEREOF” (Cornell University, priority 2021, published 2024)",
  "tested_on": "wild type C57B1/6 male mice",
  "experiment": "Imiquimod-induced type 17 skin inflammation, topical treatment",
  "format": "in vivo, mouse",
  "description": "Wild type C57B1/6 male mice 8-10 week old were purchased from Jackson labs. A 7 mm diameter circle was shaved and treated with Nair on the flank. Baseline ear thickness was measured. For 5 days, mice received daily treatment of 30 mg of 5% imiquimod cream (Taro) to each ear and to the 7 mm area on the flank. Ear thickness was recorded on days 3 and 5 to ensure peak inflammation had occurred. Mice were then randomized into three cohorts: vehicle, LRE1, and Clobetasol. […] Treatment with imiquimod was continued during this period as above. Ear thickness was recorded every day before the first dose of drug. On day 11, all mice were euthanized. A 7 mm punch biopsy was collected from the flank and both ears were removed. Skin was stored in RNAlater (Sigma) for qPCR or 10% formalin for immunohistochemistry.\nFor tissue, RNA was isolated according to specifications of the RNA easy plus universal mini kit (Qiagen). Tissue was homogenized using stainless steel beads in a bead beater. For frozen cell pellets, RNA was isolated according to specifications of the RNA easy plus mini kit (Qiagen). Samples were homogenized using Qiashredder columns (Qiagen). RNA quality control was performed using a nanodrop spectrophotometer. cDNA was made using the high-capacity rna-to-cdna kit (thermo fischer). The applied biosystems power SYBR green PCR master mix was used for qPCR. 40 cycles with annealing temperatures of 60 degrees celsius and a melting curve were performed using the QuantStudio 6 real-time PCR instrument (thermo fischer). Delta delta CT analysis was performed to determine relative transcription amongst samples normalized to GAPDH.",
  "data": [
    {"smiles": "Cc1c(Cc2ccccc2)c(-c2cc(Cl)nc(N)n2)nn1C", "note": "[Example 1, 4-(4-benzyl-1,5-dimethyl-pyrazol-3-yl)-6-chloro-pyrimidin-2-amine]", "values": [
      {"measurement": "inflammation in the ears measured by ear calipers", "setting": "applied at the same time as imiquimod, N=5", "result": "reduce the inflammation"},
      {"measurement": "skin inflammation (ear thickness)", "setting": "imiquimod 6 days, then continued imiquimod plus topical twice a day: LRE1 3%, Example 1 […], Clobetasol 0.05%", "result": "significant reduction in skin inflammation"},
      {"measurement": "reduction in inflammation", "setting": "imiquimod for one week, then imiquimod plus compound, over 4 days, N=5", "result": 50, "unit": "%"}
    ]}
  ]
}
